Assay results reported in ChEMBL document CHEMBL5360666, “Inhibition Profiles of Some Novel Sulfonamide-Incorporated α-Aminophosphonates on Human Carbonic Anhydrases” (ACS Med Chem Lett, 2023).

molecular target: Carbonic anhydrase 1 (Homo sapiens, UniProt P00915); test: Inhibition of human carbonic anhydrase 1 assessed as inhibition constant incubated for 1 hr prior to testing by phenol red based stopped-flow CO2 hydration assay
Sequence (P00915 whole entry): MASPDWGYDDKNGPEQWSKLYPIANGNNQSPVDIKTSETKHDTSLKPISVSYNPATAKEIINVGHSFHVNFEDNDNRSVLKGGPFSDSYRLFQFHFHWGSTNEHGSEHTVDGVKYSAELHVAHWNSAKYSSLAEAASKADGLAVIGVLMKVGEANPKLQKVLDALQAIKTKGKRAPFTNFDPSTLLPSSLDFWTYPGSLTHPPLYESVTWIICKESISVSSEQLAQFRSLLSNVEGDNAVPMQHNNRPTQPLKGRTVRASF

Ki [nM] | SMILES
> 50000 | COc1ccc(CNc2ccc(S(N)(=O)=O)cc2)cc1

molecular target: Carbonic anhydrase 12 (Homo sapiens, UniProt O43570); test: Inhibition of human carbonic anhydrase 12 assessed as inhibition constant incubated for 1 hr prior to testing by phenol red based stopped-flow CO2 hydration assay
Sequence (O43570 whole entry): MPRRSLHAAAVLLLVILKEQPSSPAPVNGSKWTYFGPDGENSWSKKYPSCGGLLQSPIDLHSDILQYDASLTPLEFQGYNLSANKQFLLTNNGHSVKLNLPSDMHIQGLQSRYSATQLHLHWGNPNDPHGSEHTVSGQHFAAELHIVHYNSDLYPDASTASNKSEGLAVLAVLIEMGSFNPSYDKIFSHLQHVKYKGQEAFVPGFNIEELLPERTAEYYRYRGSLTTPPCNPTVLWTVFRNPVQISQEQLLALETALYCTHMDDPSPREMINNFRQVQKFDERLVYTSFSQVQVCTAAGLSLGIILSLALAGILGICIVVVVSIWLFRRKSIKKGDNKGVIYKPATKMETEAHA

Ki [nM] | SMILES
11.2 | COc1ccc(CNc2ccc(S(N)(=O)=O)cc2)cc1

molecular target: Carbonic anhydrase 9 (Homo sapiens, UniProt Q16790); test: Inhibition of human carbonic anhydrase 9 assessed as inhibition constant incubated for 1 hr prior to testing by phenol red based stopped-flow CO2 hydration assay

Ki [nM] | SMILES
883 | COc1ccc(CNc2ccc(S(N)(=O)=O)cc2)cc1
91.6 | CCOP(=O)(OCC)C(Nc1ccc(S(N)(=O)=O)cc1)c1ccc(F)cc1 (stereo not drawn)
142 | CCOP(=O)(OCC)C(Nc1ccc(S(N)(=O)=O)cc1)c1ccc(Cl)cc1 (stereo not drawn)
39.1 | CCOP(=O)(OCC)C(Nc1ccc(S(N)(=O)=O)cc1)c1cccc(F)c1 (stereo not drawn)
80.2 | CCOP(=O)(OCC)C(Nc1ccc(S(N)(=O)=O)cc1)c1ccc(SC)cc1 (stereo not drawn)
118 | CCOP(=O)(OCC)C(Nc1ccc(S(N)(=O)=O)cc1)c1ccc(OC)c(OC)c1 (stereo not drawn)
147 | CCOP(=O)(OCC)C(Nc1ccc(S(N)(=O)=O)cc1)c1ccc(C)cc1 (stereo not drawn)
346 | CCOP(=O)(OCC)C(Nc1ccc(S(N)(=O)=O)cc1)c1c(Br)cccc1OC (stereo not drawn)
154 | CCOP(=O)(OCC)C(Nc1ccc(S(N)(=O)=O)cc1)c1ccc(Br)cc1 (stereo not drawn)
249 | CCOP(=O)(OCC)C(Nc1ccc(S(N)(=O)=O)cc1)c1cc(OC)c(OC)cc1OC (stereo not drawn)
470 | CCOP(=O)(OCC)C(Nc1ccc(S(N)(=O)=O)cc1)c1cc(OC)ccc1OC (stereo not drawn)
225 | CCOP(=O)(OCC)C(Nc1ccc(S(N)(=O)=O)cc1)c1ccc(-c2ccccc2)cc1 (stereo not drawn)
26.7 | CCOP(=O)(OCC)C(Nc1ccc(S(N)(=O)=O)cc1)c1ccccc1F (stereo not drawn)
140 | CCOP(=O)(OCC)C(Nc1ccc(S(N)(=O)=O)cc1)c1ccc(OC)cc1 (stereo not drawn)
61.3 | CCOP(=O)(OCC)C(Nc1ccc(S(N)(=O)=O)cc1)c1cccc(Br)c1 (stereo not drawn)
293 | CCOP(=O)(OCC)C(Nc1ccc(S(N)(=O)=O)cc1)c1ccccc1[N+](=O)[O-] (stereo not drawn)
